Here are results for three compounds from PMC11876601 (Molecular Systems Biology, 2025).

By EC50 is commonly meant the concentration needed to bring the measured effect to its halfway point.

For one experiment, the system named is CSNK2A1;CSNK2A3. The note with it: CSNK2A1;CSNK2A3, 5 cell line mix lysate, Kinobeads ε, ref Reinecke et al. (2023), cited from earlier work.
In the next experiment the test system is CLK2. The arrangement: method as in Reinecke et al. (2023). Particulars: CLK2, 5 cell line mix lysate, Kinobeads ε, ref Reinecke et al. (2023), cited from earlier work.
A further experiment concerns MAP3K12. The arrangement: method as in Reinecke et al. (2023). The note with it: MAP3K12, 5 cell line mix lysate, Kinobeads ε, ref Reinecke et al. (2023), cited from earlier work.
The test system of a further experiment is MAPK8. Set-up: method as in Reinecke et al. (2023). The note with it: MAPK8, 5 cell line mix lysate, Kinobeads ε, ref Reinecke et al. (2023), cited from earlier work.
In the next experiment the test system is BUB1. Set-up: method as in Reinecke et al. (2023). The note with it: BUB1, 5 cell line mix lysate, Kinobeads ε, ref Reinecke et al. (2023), cited from earlier work.
Experiment [1] relates to nine PDAC patient-derived organoids (PDOs). In words: PDO viability assay (CellTiter-Glo, 72 h), panel. It is filed as cell-based. Particulars: Homo sapiens; range among the nine PDOs; read-out: EC50 (monotherapy). The protocol:
Primary patient-derived PDAC organoid (PDO) experiments were performed in the laboratories of Prof. Maximilian Reichert (University Hospital of the TU Munich, Germany, PDO set 1: B250, B535, B678) and Prof. Jens T. Siveke (University Hospital Essen, Germany; PDO set 2: UME008, UME012, UME051, UME053, UME060, UME061). PDOs were generated from surgical resection, EUS-guided fine needle biopsy (EUS-FNB), or ascites (Appendix Table S2). Surgical specimens were first minced with a sterile scalpel and subsequently washed with Anti-Anti solution and washing medium (PDO set 1), or vice versa (PDO set 2; Appendix Table S3). Biopsy samples were directly washed with an Anti-Anti solution and washing medium. Samples were digested using 1 ml of digestion medium at 37 °C while shaking, and the enzymatic reaction was stopped by adding 15 ml of washing medium (Appendix Table S3). […]
For viability assays in PDOs, confluent organoids were removed from medium, and Matrigel was dissolved by adding 200 μl (PDO set 1) or 2 ml (PDO set 2) of Cell Recovery Solution (Corning), and additionally 500 μl of DPBS (PDO set 1 only). […] After 72 h, cell viability was measured using the CellTiter-Glo Luminescent Cell Viability Assay (Promega) diluted 1:5 in the final volume of the well. […]
(ATP-based viability assays read luminescence as a measure of living cells.)

For the next experiment, the system named is INCENP. Set-up: method as in Klaeger et al. (2017). Particulars: lysate 4 cell line mix (Colo205, K-562, MV-4-11, and SK-N-BE(2)), Kinobeads y, ref Klaeger et al. (2017); cited from earlier work.
Another experiment deals with GAK. Set-up: method as in Klaeger et al. (2017). Particulars: lysate 4 cell line mix (Colo205, K-562, MV-4-11, and SK-N-BE(2)), Kinobeads y, ref Klaeger et al. (2017); cited from earlier work.
Another experiment deals with BTK. Set-up: method as in Klaeger et al. (2017). Particulars: lysate 4 cell line mix (Colo205, K-562, MV-4-11, and SK-N-BE(2)), Kinobeads y, ref Klaeger et al. (2017); cited from earlier work.
For another experiment, the system named is CDK5. Set-up: method as in Klaeger et al. (2017). Particulars: lysate 4 cell line mix (Colo205, K-562, MV-4-11, and SK-N-BE(2)), Kinobeads y, ref Klaeger et al. (2017); cited from earlier work.

Take `COc1cc(N2CCC(N3CCN(C)CC3)CC2)ccc1Nc1ncc(Cl)c(Nc2ccccc2P(C)(C)=O)n1` [Brigatinib]: the EC50 is 331 nM with CSNK2A1;CSNK2A3; 686 nM in the experiment with CLK2; 1040 nM with MAP3K12; 2200 nM with MAPK8; 6990 nM in the experiment on BUB1. Also, the pKDapp was 6.48 at CSNK2A1;CSNK2A3; 6.35 at CLK2; 6.25 on MAP3K12; 5.85 at MAPK8; 5.16 at BUB1. Further, the Kd is 331 nM on CSNK2A1;CSNK2A3 (read-out: KDapp); 444 nM on CLK2 (read-out: KDapp); 563 nM at MAP3K12 (read-out: KDapp); 1420 nM at MAPK8 (read-out: KDapp); 6990 nM on BUB1 (read-out: KDapp).
Turning to `Nc1ccn([C@@H]2O[C@H](CO)[C@@H](O)C2(F)F)c(=O)n1` [GEM, Gemcitabine], in experiment [1], the EC50 lay within 3 to 285 nM.
For `C[C@]12O[C@H](C[C@]1(O)CO)n1c3ccccc3c3c4c(c5c6ccccc6n2c5c31)CNC4=O` [Lestaurtinib], the EC50 is 520 nM with INCENP, […] with GAK, […] in the experiment on BTK and […] in the experiment with CDK5.
